According to PubChem BioAssay (NCI):
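Cells were grown in 96-well plates and exposed to each compound for 48 hours at five concentrations; endpoints were interpolated linearly between bracketing concentrations, or set to the highest concentration if not reached. At the GI50, growth is halved. The concentration for full growth arrest is given as TGI.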

Key:
Experiment in all cases: NCI-60 cell line screen, 48 h
[1] = test system: M14 melanoma
[2] = test system: HCT-116 colon
[3] = test system: RPMI-8226 leukemia
[4] = test system: HCT-15 colon
[5] = test system: ACHN renal
[6] = test system: KM12 colon
[7] = test system: OVCAR-5 ovarian
[8] = test system: HOP-92 NSCLC
[9] = test system: MDA-N
[10] = test system: T-47D breast
[11] = test system: 786-0 renal
[12] = test system: EKVX NSCLC
[13] = test system: SW-620 colon
[14] = test system: OVCAR-3 ovarian
[15] = test system: CCRF-CEM leukemia
[16] = test system: NCI-H522 lung
[17] = test system: SF-268 CNS
[18] = test system: HCC-2998 colon
[19] = test system: MALME-3M melanoma
[20] = test system: IGROV1 ovarian
[21] = test system: MOLT-4 leukemia
[22] = test system: OVCAR-4 ovarian
[23] = test system: SNB-19 CNS
[24] = test system: UACC-62 melanoma
[25] = test system: A549 NSCLC
[26] = test system: A498 renal
[27] = test system: UO-31 renal
[28] = test system: RXF 393 renal
[29] = test system: SNB-75 CNS
[30] = test system: MCF7 breast
[31] = test system: CAKI-1 renal
[32] = test system: MDA-MB-435
[33] = test system: NCI-H460 lung
[34] = test system: PC-3 prostate
[35] = test system: HOP-62 NSCLC
[36] = test system: OVCAR-8 ovarian
[37] = test system: NCI/ADR-RES ovarian
[38] = test system: UACC-257 melanoma
[39] = test system: SF-539 CNS
[40] = test system: NCI-H226 lung
[41] = test system: SF-295 CNS
[42] = test system: MDA-MB-231 breast
[43] = test system: DU-145 prostate
[44] = test system: U251 CNS
[45] = test system: SK-MEL-28 melanoma
[46] = test system: COLO 205 colon
[47] = test system: SN12C renal
[48] = test system: NCI-H23 lung
[49] = test system: SK-OV-3 ovarian
[50] = test system: SR leukemia
[51] = test system: BT-549 breast
[52] = test system: K-562 leukemia
[53] = test system: HT29 colon
[54] = test system: LOX IMVI melanoma
[55] = test system: SK-MEL-5 melanoma
[56] = test system: TK-10 renal
[57] = test system: SK-MEL-2 melanoma
[58] = test system: HS 578T breast
[59] = test system: HL-60(TB) leukemia

N#Cc1ccsc1Nc1ccccc1[N+](=O)[O-]
TGI [1]: > 100 µM | TGI [2]: > 100 µM | TGI [3]: > 100 µM | TGI [4]: > 100 µM | TGI [5]: > 100 µM | TGI [6]: > 100 µM | TGI [7]: > 100 µM | TGI [8]: > 100 µM | TGI [9]: > 100 µM | TGI [10]: > 100 µM | TGI [11]: > 100 µM | TGI [12]: > 100 µM | TGI [13]: > 100 µM | TGI [14]: > 100 µM | TGI [15]: > 100 µM | TGI [16]: > 100 µM | TGI [17]: > 100 µM | TGI [18]: > 100 µM | TGI [19]: > 100 µM | TGI [20]: > 100 µM | TGI [21]: > 100 µM | TGI [22]: > 100 µM | TGI [23]: > 100 µM | TGI [24]: > 100 µM | TGI [25]: > 100 µM | TGI [26]: > 100 µM | TGI [27]: > 100 µM | TGI [28]: > 100 µM | TGI [29]: > 100 µM | TGI [30]: > 100 µM | TGI [31]: > 100 µM | TGI [32]: > 100 µM | TGI [33]: > 100 µM | TGI [34]: > 100 µM | TGI [35]: > 100 µM | TGI [36]: > 100 µM | TGI [37]: > 100 µM | TGI [38]: > 100 µM | TGI [39]: > 100 µM | TGI [40]: > 100 µM | TGI [41]: > 100 µM | TGI [42]: > 100 µM | TGI [43]: > 100 µM | TGI [44]: > 100 µM | TGI [45]: > 100 µM | TGI [46]: > 100 µM | TGI [47]: > 100 µM | TGI [48]: > 100 µM | TGI [49]: > 100 µM | TGI [50]: > 100 µM | TGI [51]: > 100 µM | TGI [52]: > 100 µM

CC1(C)C[C@H]2[C@H](O)C(CO)=C3C(=O)[C@@H](O)[C@]3(C)[C@H]2C1
TGI [1]: > 100 µM | TGI [2]: > 100 µM | TGI [3]: > 100 µM | TGI [4]: > 100 µM | TGI [5]: > 100 µM | TGI [6]: > 100 µM | TGI [7]: > 100 µM | TGI [8]: > 100 µM | TGI [9]: > 100 µM | TGI [53]: > 100 µM | TGI [10]: > 100 µM | TGI [11]: > 100 µM | TGI [12]: > 100 µM | TGI [13]: > 100 µM | TGI [14]: > 100 µM | TGI [15]: 84 µM | TGI [16]: > 100 µM | TGI [54]: > 100 µM | TGI [17]: > 100 µM | TGI [18]: > 100 µM | TGI [19]: > 100 µM | TGI [20]: > 100 µM | TGI [21]: 53.3 µM | TGI [55]: > 100 µM | TGI [22]: > 100 µM | TGI [23]: > 100 µM | TGI [24]: > 100 µM | TGI [25]: > 100 µM | TGI [26]: > 100 µM | TGI [56]: > 100 µM | TGI [27]: > 100 µM | TGI [28]: > 100 µM | TGI [30]: > 100 µM | TGI [57]: > 100 µM | TGI [31]: > 100 µM | TGI [32]: > 100 µM | TGI [34]: > 100 µM | TGI [35]: > 100 µM | TGI [36]: > 100 µM | TGI [37]: > 100 µM | TGI [38]: > 100 µM | TGI [39]: > 100 µM | TGI [40]: > 100 µM | TGI [41]: > 100 µM | TGI [42]: > 100 µM | TGI [43]: > 100 µM | TGI [44]: > 100 µM | TGI [45]: > 100 µM | TGI [46]: > 100 µM | TGI [47]: > 100 µM | TGI [48]: > 100 µM | TGI [49]: > 100 µM | TGI [50]: > 100 µM | TGI [51]: > 100 µM | TGI [52]: > 100 µM

Cc1cc(C)c2c(=O)cc(-c3cccc(Cl)c3)[nH]c2n1
TGI [1]: > 100 µM | TGI [2]: > 23.1 µM | TGI [4]: > 100 µM | TGI [5]: > 100 µM | TGI [6]: > 100 µM | TGI [8]: > 100 µM | TGI [9]: 0.0529 µM | TGI [11]: > 55.1 µM | TGI [12]: > 100 µM | TGI [13]: > 100 µM | TGI [58]: > 100 µM | TGI [15]: > 100 µM | TGI [16]: 0.742 µM | TGI [54]: > 34.2 µM | TGI [17]: > 100 µM | TGI [18]: > 100 µM | TGI [19]: > 100 µM | TGI [20]: > 100 µM | TGI [21]: > 38.8 µM | TGI [22]: > 100 µM | TGI [23]: > 100 µM | TGI [24]: > 100 µM | TGI [25]: > 100 µM | TGI [26]: > 100 µM | TGI [56]: > 100 µM | TGI [27]: > 100 µM | TGI [28]: > 100 µM | TGI [29]: > 100 µM | TGI [30]: > 100 µM | GI50 [31]: 0.204 µM | TGI [31]: > 100 µM | TGI [33]: > 100 µM | TGI [34]: 0.0967 µM | TGI [35]: > 100 µM | TGI [36]: > 100 µM | TGI [59]: 2.15 µM | TGI [38]: > 94.1 µM | TGI [39]: 0.464 µM | TGI [40]: > 100 µM | TGI [41]: 0.33 µM | TGI [42]: 8.09 µM | TGI [43]: > 100 µM | TGI [45]: > 100 µM | TGI [46]: > 67.1 µM | TGI [47]: > 38.3 µM | TGI [48]: > 100 µM | TGI [49]: > 100 µM | TGI [50]: > 100 µM | TGI [51]: 85.3 µM

Cc1ccc2c(=O)cc(-c3cccc(Cl)c3)[nH]c2n1
TGI [1]: > 100 µM | TGI [4]: > 35.8 µM | TGI [5]: > 100 µM | TGI [6]: > 37.5 µM | TGI [7]: > 100 µM | TGI [8]: > 100 µM | TGI [9]: > 100 µM | TGI [11]: > 100 µM | TGI [12]: > 100 µM | TGI [13]: > 100 µM | TGI [14]: 0.0274 µM | TGI [58]: > 100 µM | TGI [15]: > 100 µM | TGI [16]: 1.61 µM | TGI [54]: > 100 µM | TGI [17]: > 100 µM | TGI [18]: 41.5 µM | TGI [19]: > 100 µM | TGI [20]: > 100 µM | TGI [55]: 4.7 µM | TGI [22]: > 100 µM | TGI [23]: > 100 µM | TGI [24]: > 100 µM | TGI [25]: > 100 µM | TGI [26]: > 100 µM | TGI [56]: > 100 µM | TGI [27]: > 100 µM | TGI [30]: > 36 µM | TGI [57]: > 100 µM | TGI [31]: > 100 µM | TGI [32]: 0.0463 µM | TGI [33]: > 100 µM | TGI [34]: > 100 µM | TGI [36]: > 100 µM | TGI [38]: > 100 µM | TGI [39]: 0.0443 µM | TGI [40]: 25.9 µM | TGI [41]: 1.36 µM | TGI [42]: 3.63 µM | TGI [43]: > 100 µM | TGI [45]: > 100 µM | TGI [46]: > 35.8 µM | TGI [47]: > 100 µM | TGI [48]: > 31.6 µM | TGI [49]: > 100 µM | TGI [50]: > 100 µM | TGI [51]: > 100 µM

Cc1ccc(NC(=S)C#N)cc1Cl
TGI [1]: > 100 µM | TGI [2]: > 100 µM | TGI [3]: 56.2 µM | TGI [4]: > 100 µM | TGI [5]: > 100 µM | TGI [6]: > 100 µM | TGI [7]: 85.7 µM | TGI [8]: 62.8 µM | TGI [9]: > 100 µM | TGI [53]: > 100 µM | TGI [10]: > 100 µM | TGI [11]: > 100 µM | TGI [12]: > 100 µM | TGI [13]: > 100 µM | TGI [14]: 53.8 µM | TGI [15]: 80.3 µM | TGI [54]: > 100 µM | TGI [17]: > 100 µM | TGI [18]: 52.8 µM | TGI [19]: > 100 µM | TGI [20]: 48.4 µM | TGI [21]: > 100 µM | TGI [55]: > 100 µM | TGI [24]: > 100 µM | TGI [25]: > 100 µM | TGI [26]: 73.7 µM | TGI [56]: > 100 µM | TGI [28]: 97.8 µM | TGI [29]: 75 µM | TGI [30]: > 100 µM | TGI [57]: > 100 µM | TGI [31]: > 100 µM | TGI [32]: > 100 µM | TGI [34]: > 100 µM | TGI [35]: > 100 µM | TGI [36]: > 100 µM | TGI [37]: > 100 µM | TGI [38]: > 100 µM | TGI [39]: 70.5 µM | TGI [40]: > 100 µM | TGI [41]: > 100 µM | TGI [42]: > 100 µM | TGI [43]: > 100 µM | TGI [44]: > 100 µM | TGI [45]: > 100 µM | TGI [46]: 65.2 µM | TGI [47]: > 100 µM | TGI [48]: > 100 µM | TGI [49]: > 100 µM | TGI [50]: > 100 µM | TGI [51]: > 100 µM | TGI [52]: > 100 µM
